Experimental data taken from ChEMBL document CHEMBL1671634, “Statins alone are ineffective in cerebral malaria but potentiate artesunate” (2008).
The source made the active and inactive calls. The rule behind the calls is not given here.

Tests used:
Plasmodium falciparum [1] = assay: Antimalarial activity against Plasmodium falciparum infected in mouse assessed as parasitemia at 20 mg/kg, ip, qd administered 4 days post infection for 3 days measured after 6 days (Rvb =8.7+/-1.4 %); assay type: functional
Plasmodium falciparum [2] = assay: Antimalarial activity against Plasmodium falciparum infected in mouse assessed as mouse survival at 20 mg/kg, ip, qd administered 4 days post infection for 3 days measured after 6 days relative to control; assay type: functional, organism-based; design: dose 20 mg/kg
Plasmodium falciparum [3] = assay: Antimalarial activity against Plasmodium falciparum infected in mouse assessed as parasitemia at 20 mg/kg, ip, qd administered 5 days post infection for 3 days measured after 6 days (Rvb =8.3+/-1.3 %); assay type: functional
Plasmodium falciparum [4] = assay: Antimalarial activity against Plasmodium falciparum infected in mouse assessed as parasitemia at 100 mg/kg, ip, qd administered 5 days post infection for 3 days measured after 6 days (Rvb =8.3+/-1.3 %); assay type: functional
Plasmodium falciparum [5] = assay: Antimalarial activity against Plasmodium falciparum infected in mouse assessed as mouse survival at 100 mg/kg, ip, qd administered 5 days post infection for 3 days measured after 6 days relative to control; assay type: functional, organism-based; design: dose 100 mg/kg
Plasmodium falciparum [6] = assay: Antimalarial activity against Plasmodium falciparum infected in mouse assessed as mouse survival at 20 mg/kg, ip, qd administered 5 days post infection for 3 days measured after 6 days relative to control; assay type: functional, organism-based; design: dose 20 mg/kg
Plasmodium falciparum [7] = assay: Antimalarial activity against Plasmodium falciparum infected in mouse assessed as mouse survival at 200 mg/kg, ip, qd administered 5 days post infection for 3 days measured after 6 days relative to control; assay type: functional, organism-based; design: dose 200 mg/kg
Plasmodium falciparum [8] = assay: Antimalarial activity against Plasmodium falciparum infected in mouse assessed as parasitemia at 40 mg/kg, ip, qd administered 5 days post infection for 3 days measured after 6 days (Rvb =9.9+/-2.2 %); assay type: functional
Plasmodium falciparum [9] = assay: Antimalarial activity against Plasmodium falciparum infected in mouse assessed as mouse survival at 40 mg/kg, ip, qd administered 5 days post infection for 3 days measured after 6 days relative to control; assay type: functional, organism-based; design: dose 40 mg/kg
Plasmodium falciparum [10] = assay: Antimalarial activity against Plasmodium falciparum infected in mouse assessed as parasitemia at 200 mg/kg, ip, qd administered 5 days post infection for 3 days measured after 6 days (Rvb =9.9+/-2.2 %); assay type: functional
Plasmodium falciparum [11] = assay: Antimalarial activity against Plasmodium falciparum infected in mouse assessed as mouse survival at 40 mg/kg, ip, qd administered 3 days post infection for 6 days measured after 6 days relative to control; assay type: functional, organism-based; design: dose 40 mg/kg
Plasmodium falciparum [12] = assay: Antimalarial activity against Plasmodium falciparum infected in mouse assessed as parasitemia at 40 mg/kg, ip, qd administered 3 days post infection for 6 days measured after 6 days (Rvb =8.0+/-1.6 %); assay type: functional

Compound: CC(C)c1c(C(=O)Nc2ccccc2)c(-c2ccccc2)c(-c2ccc(F)cc2)n1CC[C@@H](O)C[C@@H](O)CC(=O)O [ATORVASTATIN]
- Activity (Plasmodium falciparum [1]): 9.5%
- Survival (Plasmodium falciparum [2]): inactive

Compound: CC(C)n1c(/C=C/C(O)CC(O)CC(=O)O)c(-c2ccc(F)cc2)c2ccccc21 (configuration not stated) [FLUVASTATIN]
- Activity (Plasmodium falciparum [3]): 7.4%
- Activity (Plasmodium falciparum [4]): 7.4%
- Survival (Plasmodium falciparum [5]): inactive
- Survival (Plasmodium falciparum [6]): inactive

Compound: CC[C@H](C)C(=O)O[C@H]1C[C@H](O)C=C2C=C[C@H](C)[C@H](CC[C@@H](O)C[C@@H](O)CC(=O)O)[C@H]21 [PRAVASTATIN]
- Survival (Plasmodium falciparum [7]): inactive
- Activity (Plasmodium falciparum [8]): 11.5%
- Survival (Plasmodium falciparum [9]): inactive
- Activity (Plasmodium falciparum [10]): 11.8%

Compound: CCC(C)(C)C(=O)O[C@H]1C[C@@H](C)C=C2C=C[C@H](C)[C@H](CC[C@@H]3C[C@@H](O)CC(=O)O3)[C@H]21 [SIMVASTATIN]
- Survival (Plasmodium falciparum [11]): inactive
- Activity (Plasmodium falciparum [12]): 8.5%
